62 compounds from patent US9029409B2, “Isoxazolines as therapeutic agents” (AbbVie Inc., priority 2011, dated 2015) can be followed below.

pIC50: −log10 of the molar value.

For the test, the target named is T1, recombinant human MMP13 catalytic domain (CD) (Homo sapiens, UniProt P45452).
T1 construct: catalytic domain (CD) construct encompassing residues 20-274 (SWISS-PROT P45452); made in house
The test can be described thus: MMP-13 catalytic domain FRET enzyme assay. It is filed as biochemical. Conditions: recombinant human MMP-13 catalytic domain. The method, then: A recombinant human MMP13 catalytic domain (CD) construct encompassing residues 20-274 (SWISS-PROT P45452) was generated by synthetic gene methods and bacterial expression. MMP-13 activity assays were performed using the recombinant human MMP-13 CD at a 0.4 nM concentration and the fluorogenic substrate (QXL-520)-K-P-L-A˜Nva-Dap(5-FAM)-A-R-NH2 (Anaspec cat #60554-01, San Jose, Calif.) at a 0.25 μM concentration in assay buffer containing […], pH 7.5, 10 mM CaCl2, 150 mM NaCl, 0.05% Brij 35. The assay is based on the cleavage of this substrate by MMP-13, resulting in decrease of FRET between the donor-acceptor pair and subsequent fluorescence enhancement. The assays were carried out in 384-well plates (Greiner cat #781076, Germany) for 60 min at RT. After the incubation period, the reaction was quenched by the addition of 5 μL of 500 mM EDTA (100 mM final concentration) (Rankem, Cat #E0120, India) mixed well and the rate of substrate hydrolysis was determined by monitoring change in fluorescence at excitation and emission wavelengths of 485 nm and 535 nm respectively. Fluorescence was measured on a Victor V5 plate reader (Perkin Elmer, Turku, Finland). The test compounds used for assessing the potency of inhibition of MMP-13 activity were dissolved in DMSO (final DMSO concentration in the assay was 5%). Selected compounds were also screened against full length MMP13 (R&D Systems (Cat. No. 511-MM-010), Minneapolis, Minn.) at 2 nM concentration using the same fluorogenic substrate mentioned above. The enzyme was activated using 1 m Mp-aminophenylmercuric acetate—APMA (Cat #A-9563, Sigma, Germany).
Data analysis: The percent inhibition of the enzyme activity in presence of test compounds were calculated using the equation, percent (%) Inhibition=100−[(Fi/Fc)*100] where Fc is the fluorescence corresponding to initial enzyme activity and Fi is the fluorescence corresponding to the enzyme activity in presence of inhibitor. The IC50 values were calculated by fitting the dose-response data to a sigmoidal curve fitting equation using Graph Pad prism software (Version 5, La Jolla, Calif.).
MMP13 Catalytic Domain (CD) Potency of the Described Examples Determined Using Time Resolved Fluorescence Resonance Energy Transfer (FRET) Enzyme Assays: […]
As for `COc1cc(CNC(=O)c2cc(C3=NO[C@@H](C4CCN(C(=O)CO)CC4)C3)nc(C)n2)ccc1F`, the pIC50 is 7.00 to 8.00.
For the compound `COc1cc(CNC(=O)c2cc(C3=NOC(CN4CCOCC4)C3)nc(C)n2)ccc1F` (centres unmarked), the pIC50 is less than 6.00.
On to `COc1cc(CNC(=O)c2cc(C3=NOC([C@H]4CC[C@H](NC(=O)N(C)C)CC4)C3)nc(C)n2)ccc1F` (some centres unmarked), for which the pIC50 was more than 8.00.
`COc1cc(CNC(=O)c2cc(C3=NOC(c4ccc(CN5CCSCC5)cc4)C3)nc(C)n2)ccc1F` (centres unmarked): the pIC50 is more than 8.00.
With `Cc1nc(C(=O)NCc2ccc3c(c2)NC(=O)CO3)cc(C2=NOC(c3ccc(=O)n(C4CC4)c3)C2)n1` (centres unmarked), the pIC50 is more than 8.00.
With `COc1cc(CNC(=O)c2cc(C3=NOC(c4ccc(=O)n(CC(=O)N(C)C)n4)C3)nc(C)n2)ccc1F` (centres unmarked) the figure was 7.00 to 8.00.
Then `COc1cc(CNC(=O)c2cc(C3=NO[C@@H](c4ccc(CO)cc4)C3)nc(C)n2)ccc1F`, with more than 8.00; and `Cc1nc(C(=O)NCc2ccc(F)c(C)c2)cc(C2=NO[C@H]([C@H]3CC[C@H](NC(=O)[C@H](C)O)CC3)C2)n1`, with more than 8.00; and `COc1cc(CNC(=O)c2cc(C3=NOC(C4CCN(C(=O)C(C)(C)O)CC4)C3)nc(C)n2)ccc1F` (centres unmarked), with 7.00 to 8.00.
Regarding `Cc1nc(C(=O)NCc2ccc3c(c2)NC(=O)CO3)cc(C2=NOC([C@H]3CC[C@H](NC(=O)[C@H](C)O)CC3)C2)n1` (some centres unmarked), the pIC50 was more than 8.00.
Regarding `COc1cc(CNC(=O)c2cc(C3=NOC(c4ccc(C#N)nc4)C3)nc(C)n2)ccc1F` (centres unmarked), the pIC50 is more than 8.00.
Consider `COc1ccc(CNC(=O)c2cc(C3=NOC(c4ccc(CO)cc4)C3)nc(C)n2)cc1` (centres unmarked), for which the pIC50 is 7.00 to 8.00.
As for `COc1cc(CNC(=O)c2cc(C3=NO[C@H](c4ccn(C)c(=O)c4)C3)nc(C)n2)ccc1F`, the negative-log IC50 (pIC50) is more than 8.00.
In the case of `COc1cc(CNC(=O)c2cc(C3=NOC(c4ccc(-c5cnco5)cn4)C3)nc(C)n2)ccc1F` (centres unmarked), the pIC50 is more than 8.00.
`COc1cc(CNC(=O)c2cc(C3=NOC(c4ccccn4)C3)nc(C)n2)ccc1F` (centres unmarked): the pIC50 was 7.00 to 8.00.
`COc1cc(CNC(=O)c2cc(C3=NOC(C4CCN(C(=O)C5CC5)CC4)C3)nc(C)n2)ccc1F` (centres unmarked) [drawing 1063]: the pIC50 was 7.00 to 8.00.
As for `CC(=O)N[C@H]1CC[C@H]([C@@H]2CC(c3cc(C(=O)NCc4ccc(F)c(C)c4)nc(C)n3)=NO2)CC1`, the pIC50 was more than 8.00.
In the case of `CC(=O)N1CCC(C2CC(c3cc(C(=O)NCc4ccc(F)c(Cl)c4)nc(C)n3)=NO2)CC1` (centres unmarked), the pIC50 is 7.00 to 8.00.
With `CC(=O)N1CCC(C2CC(c3cc(C(=O)NCc4ccc(F)c(F)c4)nc(C)n3)=NO2)CC1` (centres unmarked) the figure was 7.00 to 8.00.
As to `Cc1nc(C(=O)NCc2cccc(F)c2)cc(C2=NO[C@H]([C@H]3CO[C@H](CO)CO3)C2)n1`, the pIC50 is less than 6.00.
As for `COc1ccc(CNC(=O)c2cc(C3=NOC(C)(c4ccc(OCCO)cc4)C3)nc(C)n2)cc1` (centres unmarked), the pIC50 was 6.00 to 7.00.
Regarding `COc1ccc(CNC(=O)c2cc(C3=NOC(c4cccc(OCCO)c4)C3)nc(C)n2)cc1` (centres unmarked), the pIC50 is 7.00 to 8.00.
Then `Cc1nc(C(=O)NCc2ccc(F)c(C)c2)cc(C2=NOC(c3ccc(C#N)nn3)C2)n1` (centres unmarked), with more than 8.00; and `COc1cc(CNC(=O)c2cc(C3=NOC(c4ccc(C(C)=O)cn4)C3)nc(C)n2)ccc1F` (centres unmarked), with more than 8.00.
As to `Cc1nc(C(=O)NCc2ccc(F)c(Cl)c2)cc(C2=NO[C@H]([C@H]3CO[C@H](CO)CO3)C2)n1` [drawing 901], the pIC50 is more than 8.00.
In the case of `COc1cc(CNC(=O)c2cc(C3=NOC(CC4CCN(C(=O)CO)CC4)C3)nc(C)n2)ccc1F` (centres unmarked), the pIC50 was 7.00 to 8.00.
On to `COc1cc(CNC(=O)c2cc(C3=NOC(c4ccc(S(C)(=O)=O)cn4)C3)nc(C)n2)ccc1F` (centres unmarked), for which the negative-log IC50 (pIC50) was more than 8.00.
Then `COc1ccc(CNC(=O)c2cc(C3=NOC(c4ccc(C(N)=O)cc4)C3)nc(C)n2)cc1` (centres unmarked), with more than 8.00; and `Cc1nc(C(=O)NCc2ccc(F)c(Cl)c2)cc(C2=NO[C@H]([C@H]3CO[C@@H](CO)CO3)C2)n1` [drawing 925], with 7.00 to 8.00; and `Cc1nc(C(=O)NCc2ccc(F)c(F)c2)cc(C2=NO[C@H]([C@H]3CO[C@H](CO)CO3)C2)n1` [drawing 953], with less than 6.00.
Take `COc1ccc(CNC(=O)c2cc(C3=NOC(C)(c4ccccc4)C3)ccn2)cc1` (centres unmarked): the negative-log IC50 (pIC50) is less than 6.00.
In the case of `COc1cc(CNC(=O)c2cc(C3=NOC(c4ccc(-c5nc(C)no5)cn4)C3)nc(C)n2)ccc1F` (centres unmarked), the pIC50 is more than 8.00.
Regarding `COc1cc(CNC(=O)c2cc(C3=NOC(C(=O)N4CCOCC4)C3)nc(C)n2)ccc1F` (centres unmarked), the negative-log IC50 (pIC50) was less than 6.00.
In the case of `Cc1cccc(CNC(=O)c2cc(C3=NO[C@@H]([C@H]4CO[C@H](CO)CO4)C3)nc(C)n2)c1`, the pIC50 was less than 6.00.
With `Cc1nc(C(=O)NCc2ccc3c(c2)NC(=O)CO3)cc(C2=NO[C@H]([C@H]3CO[C@H](CO)CO3)C2)n1`, the pIC50 was more than 8.00.
With `COc1cc(CNC(=O)c2cc(C3CC(c4ccccc4)=NO3)nc(C)n2)ccc1F` (centres unmarked) the figure was 7.00 to 8.00.
`COc1cc(CNC(=O)c2cc(C3=NOC(c4ccc(C(C)(C)O)cc4)C3)nc(C)n2)ccc1F` (centres unmarked): the pIC50 is 7.00 to 8.00.
For `COc1cc(CNC(=O)c2cc(C3=NO[C@H]([C@H]4CO[C@H](C(N)=O)CO4)C3)nc(C)n2)ccc1F`, the pIC50 is more than 8.00.
For `COc1cc(CNC(=O)c2cc(C3=NOC(c4ccc(=O)n(C5CC5)c4)C3)nc(C)n2)ccc1F` (centres unmarked), the pIC50 was more than 8.00.
For the compound `COc1cc(CNC(=O)c2cc(C3=NOC(c4ccc(C(=O)NCCO)cc4)C3)nc(C)n2)ccc1F` (centres unmarked), the pIC50 was 7.00 to 8.00.
As for `COc1ccc(CNC(=O)c2cc(C3=NO[C@H](c4ccc(OCCO)cc4)C3)nc(C)n2)cc1`, the negative-log IC50 (pIC50) is more than 8.00.
With `Cc1nc(C(=O)NCc2ccc(F)c(Cl)c2)cc(C2=NO[C@H]([C@H]3CO[C@@H](CO)CO3)C2)n1` [drawing 924], the negative-log IC50 (pIC50) was less than 6.00.
Then `COc1ccc(CNC(=O)c2cc(C3=NOC(C4CCN(C(C)=O)CC4)C3)nc(C)n2)cc1` (centres unmarked), with 6.00 to 7.00; and `COCC(=O)N1CCC(C2CC(c3cc(C(=O)NCc4ccc(F)c(OC)c4)nc(C)n3)=NO2)CC1` (centres unmarked), with 7.00 to 8.00; and `COc1cc(CNC(=O)c2cc(C3=NOC(c4ccc(N5CCC(CO)CC5)cc4)C3)nc(C)n2)ccc1F` (centres unmarked), with 7.00 to 8.00.
On to `COc1cc(CNC(=O)c2cc(C3=NOC(C4CCN(C(=O)C(C)C)CC4)C3)nc(C)n2)ccc1F` (centres unmarked), for which the pIC50 was 7.00 to 8.00.
Then `Cc1nc(C(=O)NCc2ccc(F)cc2)cc(C2=NOC(C3CCN(S(C)(=O)=O)CC3)C2)n1` (centres unmarked), with more than 8.00; and `COc1cc(CNC(=O)c2cc(C3=NOC(c4ccnc(C(C)(C)O)c4)C3)nc(C)n2)ccc1F` (centres unmarked), with 7.00 to 8.00; and `COc1cc(CNC(=O)c2cc(C3=NOC(c4ccn(CC(=O)NC(C)C)c(=O)c4)C3)nc(C)n2)ccc1F` (centres unmarked), with 7.00 to 8.00.
`COc1cc(CNC(=O)c2cc(C3=NO[C@H]([C@H]4CC[C@H](NC(=O)[C@H](C)O)CC4)C3)nc(C)n2)ccc1F`: the negative logarithm of the IC50 (pIC50) is more than 8.00.
For `COc1cc(CNC(=O)c2cc(C3=NOC(c4cncnc4)C3)nc(C)n2)ccc1F` (centres unmarked), the pIC50 is 7.00 to 8.00.
With `COc1cc(CNC(=O)c2cc(C3=NO[C@H]([C@H]4CO[C@H](CNC(=O)CO)CO4)C3)nc(C)n2)ccc1F` the figure was more than 8.00; with `COc1cc(CNC(=O)c2cc(C3=NOC(C(N)=O)C3)nc(C)n2)ccc1F` (centres unmarked), less than 6.00.
With `COc1ccc(CNC(=O)c2cc(C3=NO[C@H]([C@H]4CO[C@@H](CO)CO4)C3)nc(C)n2)cc1` [drawing 922] the figure was less than 6.00.
With `COc1ccc(CNC(=O)c2cc(C3=NOC(c4cnccn4)C3)ccn2)cc1` (centres unmarked), the pIC50 is less than 6.00.
With `CC(=O)N1CCC(C2CC(c3cc(C(=O)NCc4ccc(F)c(C)c4)nc(C)n3)=NO2)CC1` (centres unmarked), the pIC50 was 7.00 to 8.00.
Then `CCS(=O)(=O)N1CCC(C2CC(c3cc(C(=O)NCc4ccc(F)c(OC)c4)nc(C)n3)=NO2)CC1` (centres unmarked), with more than 8.00.
On to `COc1cc(CNC(=O)c2cc(C3=NOC(C4CCN(C(=O)Nc5nccs5)CC4)C3)nc(C)n2)ccc1F` (centres unmarked), for which the negative-log IC50 (pIC50) is 7.00 to 8.00.
For the compound `COc1cc(CNC(=O)c2cc(C3=NOC([C@H]4CC[C@H](CNC(=O)CO)CC4)C3)nc(C)n2)ccc1F` (some centres unmarked), the negative-log IC50 (pIC50) is more than 8.00.
Turning to `COc1cc(CNC(=O)c2cc(C3=NOC(c4ccsc4)C3)nc(C)n2)ccc1F` (centres unmarked), the pIC50 was more than 8.00.
On to `COc1cc(CNC(=O)c2cc(C3=NOC(C4CCN(C(=O)N(C)CCO)CC4)C3)nc(C)n2)ccc1F` (centres unmarked), for which the pIC50 was more than 8.00.
For `COc1cc(CNC(=O)c2cc(C3=NOC([C@H]4CC[C@H](CNC(C)=O)CC4)C3)nc(C)n2)ccc1F` (some centres unmarked), the pIC50 was more than 8.00.

For orientation: pIC50 means the negative decadic logarithm of the IC50, by convention in mol/L.
